# Measurements published in patent US20100056791A1, “Pyrazolopyridine carboxamide derivative and phosphodiesterase (pde) inhibitor containing the same” (priority 2006, published 2010).
# pIC50: −log10 of the molar value.
# Legend:
# [1] = target: T1, PDE4B catalytic domain (PDE4Bcat) (Homo sapiens, UniProt Q07343); assay: Phosphodiesterase inhibitory activity ([3H]cAMP breakdown, recombinant PDE4Bcat); assay type: biochemical; settings: 30° C. 20 minutes, read-out: IC50(μmol/L) PDE4
# T1 construct: The cDNA of PDE4B catalytic domain (hereinafter abbreviated as Cat) was isolated from human RNA by RT-PCR; made in house; host or cells: Sf9 insect cells (baculovirus, Gateway / Bac-to-Bac)
# T1 sequence (Q07343 330-659 limits assumed): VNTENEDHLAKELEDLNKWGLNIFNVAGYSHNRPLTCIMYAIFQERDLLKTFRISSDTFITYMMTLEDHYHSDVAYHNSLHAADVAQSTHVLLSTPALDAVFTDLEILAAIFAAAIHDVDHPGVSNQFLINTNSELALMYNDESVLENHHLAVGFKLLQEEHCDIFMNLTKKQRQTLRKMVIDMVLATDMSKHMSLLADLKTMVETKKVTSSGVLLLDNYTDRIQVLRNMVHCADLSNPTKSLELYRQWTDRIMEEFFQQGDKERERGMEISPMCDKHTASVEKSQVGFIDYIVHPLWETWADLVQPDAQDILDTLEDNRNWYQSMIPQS
# Source text: The cDNA of PDE4B catalytic domain (hereinafter abbreviated as Cat) was isolated from human RNA by RT-PCR. The isolated cDNA fragments were inserted into Sf9 insect cells using Gateway system (product of Invitrogen Corporation) and Bac-to-Bac (registered trademark) Baculovirus Expression system (product of Invitrogen Corporation) to express a target PDE protein. The recombinant PDE4Bcat was purified from the culture supernatants or cell extracts of Sf9 cells expressing high levels of the PDE protein by ion exchange chromatography and was used for the following experiments.
# A 4 mmol/L solution of each test compound was serially diluted four-fold with a 15% DMSO solution to prepare solutions with concentrations of 15 nmol/L to 4 mmol/L (the final concentrations used in the experiments were 1.5 nmol/L to 400 μmol/L). 10 μL of the prepared test compound solutions, [3H] cAMP diluted with a buffer solution (40 mmol/L Tris-HCl (pH: 7.4), 10 mmol/L MgCl2), and 40 μL of the recombinant human PDE protein (2×10^−6 units, 1 unit is defined as the amount of PDE that breaks down 1 μmol/L of cAMP in one minute under the conditions of a pH of 7.5 and 30° C.) were added to a 96-well plate. The mixtures were reacted at 30° C. for 20 minutes. Then, the resultant mixtures were reacted at 65° C. for 2 minutes. Subsequently, 25 μL of 1 mg/mL5′-nucleotidase (Crotalus atrox venom, product of Sigma) was added to the mixtures, and the mixtures were reacted at 30° C. for 10 minutes. After completion of the reaction, 200 μL of a solution of Dowex (300 mg/mL Dowex 1×8-400 (product of Sigma Aldrich), 33% ethanol) was added to the mixtures, and the mixtures were shaken at 4° C. for 20 minutes. Subsequently, 200 μL of MicroScint 20 (product of Packard) was added to the mixtures, and measurement was performed using a scintillation counter (Topcount, product of Packard). IC50 values were calculated using Graph Pad Prism v3.03 (product of GraphPad Software). When […], the results were represented by “+.” When 0.1 μmol/L>the IC50 value, the results were represented by “++.”
# [2] = test system: histamine-induced bronchoconstriction; assay: Histamine-induced airway contraction reaction in guinea pigs; assay type: in vivo; settings: Cavia porcellus, iv, 0.5 min, i.v., 30 seconds after administration, read-out: Inhibition ratio; for inhibition in vivo at 0.3 mg/kg: 0.3 mg/kg administration (results in brackets); for inhibition in vivo at 0.1 mg/kg: 0.1 mg/kg administration (not in brackets)
# Protocol: Guinea pigs were anesthetized with pentobarbital (30 mg/kg, i.p.). A cannula for intravenous administration, a cannula for collecting blood and measuring blood pressure, and a tracheal cannula were inserted into the left external jugular vein, right internal carotid artery, and trachea, respectively. The guinea pigs were maintained on artificial respiration under the conditions of 60 times/min and 10 mL/kg/stroke. The airflow from the side branch of the tracheal cannula was measured by a bronchospasm transducer (Ugo-Basile) and recorded on a computer via Power Lab (ADInstruments Japan). The guinea pigs were immobilized with gallamine (10 mg/kg, i.v.), and histamine was administered at 10-minute intervals (12.5 μg/kg, i.v.). […] We examined the inhibitory action of test compounds on histamine-induced bronchoconstriction 30 seconds after compounds administration. Bronchoconstriction was recorded as the amount of airflow, and the results were represented by the ratio of the maximum value of the histamine-induced airflow 30 seconds after the administration to the maximum value of the airflow before the administration. When the inhibition ratio≧90%, the results were represented by “+++.” When 90%>the inhibition ratio≧70%, the results were represented by “++.” When 70%>the inhibition ratio≧30%, the results were represented by “+.” The results shown in brackets are for 0.3 mg/kg administration, and the other results are for 0.1 mg/kg administration.
Compound,pIC50 [1],inhibition in vivo at 0.3 mg/kg [2],inhibition in vivo at 0.1 mg/kg [2]
"CCc1cc2c(C(=O)Nc3c(Cl)c[n+]([O-])cc3Cl)ccc(OC)n2n1 [Example 11, 2-Ethyl-7-methoxypyrazolo[1,5-a]pyridine-4-carboxylic acid (3,5-dichloto-1-oxypyridin-4-yl)amide]",> 7.00,70 to 90%,
"COc1ccc(C(=O)Nc2c(Cl)c[n+]([O-])cc2Cl)c2cc(C(F)(F)F)nn12 [Example 17, 7-Methoxy-2-trifluoromethylpyrazolo[1,5-a]pyridine-4-carboxylic acid (3,5-dichloro-1-oxypyridin-4-yl)amide]",> 7.00,,30 to 70%
"COc1ccc(C(=O)Nc2c(Cl)cc(Cl)cc2Cl)c2cc(C(F)(F)F)nn12 [Example 18, 7-Methoxy-2-trifluoromethylpyrazolo[1,5-a]pyridine-4-carboxylic acid (2,4,6-trichlorophenyl)amide]",5.00 to 7.00,,
"COc1ccc(C(=O)Nc2c(Cl)cncc2Cl)c2cc(C3CC3)nn12 [Example 24, 2-Cyclopropyl-7-methoxypyrazolo[1,5-a]pyridine-4-carboxylic acid (3,5-dichloropyridin-4-yl)amide]",> 7.00,,≥ 90%
"COc1ccc(C(=O)Nc2c(Cl)c[n+](O)cc2Cl)c2cc(C3CC3)nn12 [Example 25, 2-Cyclopropyl-7-methoxypyrazolo[1,5-a]pyridine-4-carboxylic acid (3,5-dichloro-1-oxypyridin-4-yl)amide]",> 7.00,≥ 90%,
"COc1ccc(C(=O)Nc2c(Cl)cncc2Cl)c2cc(C(C)C)nn12 [Example 32, 2-Isopropyl-7-methoxypyrazolo[1,5-a]pyridine-4-carboxylic acid (3,5-dichloropyridin-4-yl)amide]",5.00 to 7.00,,70 to 90%
"COc1ccc(C(=O)Nc2c(Cl)c[n+](O)cc2Cl)c2cc(C(C)C)nn12 [Example 33, 2-Isopropyl-7-methoxypyrazolo[1,5-a]pyridine-4-carboxylic acid (3,5-dichloro-1-oxypyridin-4-yl)amide]",> 7.00,,≥ 90%
"COc1ccc(C(=O)Nc2c(Cl)cncc2Cl)c2ccnn12 [Example 40, 7-Methoxypyrazolo[1,5-a]pyridine-4-carboxylic acid (3,5-dichloropyridin-4-yl)amide]",> 7.00,70 to 90%,
"COc1ccc(C(=O)Nc2c(Cl)c[n+]([O-])cc2Cl)c2ccnn12 [Example 41, 7-Methoxypyrazolo[1,5-a]pyridine-4-carboxylic acid (3,5-dichloro-1-oxypyridin-4-yl)amide]",> 7.00,30 to 70%,
"CCc1cc2c(C(=O)Nc3c(Cl)cncc3Cl)cccn2n1 [Example 48, 2-Ethylpyrazolo[1,5-a]pyridine-4-carboxylic acid (3,5-dichloropyridin-4-yl)amide]",5.00 to 7.00,,
"COc1ccc(C(=O)Nc2c(Cl)cncc2Cl)c2cc(C(F)F)nn12 [Example 58, 2-Difluoromethyl-7-methoxy-pyrazolo[1,5-a]pyridine-4-carboxylic acid (3,5-dichloropyridin-4-yl)amide]",> 7.00,,≥ 90%
"CCOc1ccc(C(=O)Nc2c(Cl)cncc2Cl)c2cc(C(F)F)nn12 [Example 59, 2-Difluoromethyl-7-ethoxypyrazolo[1,5-a]pyridine-4-carboxylic acid (3,5-dichloropyridin-4-yl)amide]",> 7.00,,
"COc1ccc(C(=O)Nc2c(Cl)c[n+](O)cc2Cl)c2cc(C#N)nn12 [Example 71, 2-Cyano-7-methoxypyrazolo[1,5-a]pyridine-4-carboxylic acid (3,5-dichloro-1-oxypyridin-4-yl)amide]",> 7.00,,
"COCc1cc2c(C(=O)Nc3c(Cl)cncc3Cl)ccc(OC)n2n1 [Example 76, 7-Methoxy-2-methoxymethylpyrazolo[1,5-a]pyridine-4-carboxylic acid (3,5-dichloropyridin-4-yl)amide]",> 7.00,,70 to 90%
"COCc1cc2c(C(=O)Nc3c(Cl)c[n+](O)cc3Cl)ccc(OC)n2n1 [Example 77, 7-Methoxy-2-methoxymethylpyrazolo[1,5-a]pyridine-4-carboxylic acid (3,5-dichloro-1-oxypyridin-4-yl)amide]",> 7.00,30 to 70%,
"COc1ccc(C(=O)Nc2c(Cl)cncc2Cl)c2cc(C=O)nn12 [Example 78, 2-Formyl-7-methoxypyrazolo[1,5-a]pyridine-4-carboxylic acid (3,5-dichloropyridin-4-yl)amide]",> 7.00,70 to 90%,
"COc1ccc(C(=O)Nc2c(Cl)cncc2Cl)c2cc(C(C)O)nn12 (stereo not drawn) [Example 79, 2-(1-Hydroxyethyl)-7-methoxypyrazolo[1,5-a]pyridine-4-carboxyl ic acid (3,5-dichloropyridin-4-yl)amide]",> 7.00,,30 to 70%
"COc1ccc(C(=O)Nc2c(Cl)cncc2Cl)c2cc(C(C)=O)nn12 [Example 80, 2-Acetyl-7-methoxypyrazolo[1,5-a]pyridine-4-carboxylic acid (3,5-dichloropyridin-4-yl)amide]",> 7.00,,30 to 70%
"COc1ccc(C(=O)Nc2c(Cl)cncc2Cl)c2cc(C(=O)O)nn12 [Example 81, 4-(3,5-Dichloropyridin-4-ylcarbamoyl)-7-methoxypyrazolo[1,5-a]pyridine-2-carboxylic acid]",5.00 to 7.00,,
"COc1ccc(C(=O)Nc2c(Cl)cncc2Cl)c2cc(C=NO)nn12 [Example 82, 2-(Hydroxyiminomethy)-7-methoxypyrazolo[1,5-a]pyridine-4-carboxylic acid (3,5-dichloropyridin-4-yl)amide]",> 7.00,,70 to 90%
"COc1ccc(C(=O)Nc2c(Cl)cncc2Cl)c2cc(C#N)nn12 [Example 83, 2-Cyano-7-methoxypyrazolo[1,5-a]pyridine-4-carboxylic acid (3,5-dichloropyridin-4-yl)amide]",> 7.00,,≥ 90%
"CNc1ccc(C(=O)Nc2c(Cl)cncc2Cl)c2cc(C(F)(F)F)nn12 [Example 97, 7-Methylamino-2-trifluoromethylpyrazolo[1,5-a]pyridine-4-carboxylic acid (3,5-dichloropyridin-4-yl)amide]",> 7.00,,
"CC(=O)c1ccc(C(=O)Nc2c(Cl)cncc2Cl)c2cc(C(F)(F)F)nn12 [Example 108, 7-Acetyl-2-trifluoromethylpyrazolo[1,5-a]pyridine-4-carboxylic acid (3,5-dichloropyridin-4-yl)amide]",> 7.00,,
"COCc1ccc(C(=O)Nc2c(Cl)cncc2Cl)c2cc(C(F)(F)F)nn12 [Example 115, 7-Methoxymethyl-2-trifluoromethylpyrazolo[1,5-a]pyridine-4-carboxylic acid (3,5-dichloropyridin-4-yl)amide]",> 7.00,,
"COc1ccc(C(=O)Nc2c(Cl)cncc2Cl)c2c(Cl)c(C(F)(F)F)nn12 [Example 118, 3-Chloro-7-methoxy-2-trifluoromethylpyrazolo[1,5-a]pyridine-4-carboxylic acid (3,5-dichloropyridin-4-yl)amide]",> 7.00,,
"COc1ccc(C(=O)Nc2c(Cl)cncc2Cl)c2c(O)c(C(F)(F)F)nn12 [Example 119, 3-Hydroxy-7-methoxy-2-trifluoromethylpyrazolo[1,5-a]pyridine-4-carboxylic acid (3,5-dichloropyridin-4-yl)amide]",5.00 to 7.00,,
